Measured values reported in patent US20070166356A1, “Food supplement for animals, comprising an olfactory additive” (ADISSEO IRELAND LIMITED, priority 2004, published 2007).

Test system: turkey poults of stock BUT 9
Assay: Free-choice feed consumption test in 6 day turkey poults
Assay type: in vivo
Details: per cage of 5 turkey poults
Source text: Test item no. 2 therefore comprises 0.05% of olfactory additive for 99.95% of methionine hydroxyl-analog. The test items are incorporated into a mixture of maize and soya, which is used as basic feed. The experimental plan is the following: [table] 150 turkey poults of stock BUT 9 are selected and placed in cages fitted out with a water bowl and two feeders with a capacity of about 0.3 kg. 5 turkey poults are placed per cage. The animals receive during the pre-experimental period (i.e. from D0to D6, 8.00am), an identical standard starting feed. During the experimental phase (i.e. D6 from 8am to 5pm), the animals are separated into three groups 10 A, B and C. For each group and each cage of this group, the animals have the choice between two test items. For example the animals of group A may choose between test item no. 3 and test item no. 1. Feeding is ad libitum with checking of consumption at […]. Furthermore, at each measuring time, the two feeders are interchanged in order to prevent the animals from being accustomed to the positioning of the feeders. […] The illustrated consumption is the consumption per cage, i.e. for 5 turkey poults. This consumption satisfies the following formula: (weight of the feeder at the end of the period)-(weight of the feeder at the beginning of the period). Averages are performed for each group over 12 cages.

## CSCC[C@H](N)C(=O)O [Test item no. 3, methionine]
T0 + 1 h, group A: choice test item no. 3 (0.2%) vs no. 1 (0.23%)
  Consumption, Average: 6.8 g
T0 + 1 h, group B: choice test item no. 3 (0.2%) vs no. 2 (0.23%), no. 2 = hydroxy analog + 0.5 g/kg olf. additive
  Consumption, Average: 9.1 g
T0 + 3 h, group A: choice test item no. 3 (0.2%) vs no. 1 (0.23%)
  Consumption, Average: 15.5 g
T0 + 3 h, group B: choice test item no. 3 (0.2%) vs no. 2 (0.23%)
  Consumption, Average: 14.9 g
T0 + 5 h, group A: choice test item no. 3 (0.2%) vs no. 1 (0.23%)
  Consumption, Average: 23.3 g
T0 + 5 h, group B: choice test item no. 3 (0.2%) vs no. 2 (0.23%)
  Consumption, Average: 22.6 g
T0 + 7 h, group A: choice test item no. 3 (0.2%) vs no. 1 (0.23%)
  Consumption, Average: 30.3 g
T0 + 7 h, group B: choice test item no. 3 (0.2%) vs no. 2 (0.23%)
  Consumption, Average: 30.0 g
T0 + 9 h, group A: choice test item no. 3 (0.2%) vs no. 1 (0.23%)
  Consumption, Average: 37.7 g
T0 + 9 h, group B: choice test item no. 3 (0.2%) vs no. 2 (0.23%)
  Consumption, Average: 36.8a g
